Laboratory results published in publication PMC13266999, “Designing Antibiotics with Inherent Resistance to Efflux as a Strategy to Revive Discovery against Multidrug-Resistant Pathogens” (Journal of Medicinal Chemistry, 2026).
In brackets after ≈: the same amount, converted by molar mass. Where two headings read alike, the source gives them in different places.

What was measured:
S. aureus [1] = test: Serial passaging, MIC of adapted strains; type: cell-based; conditions: Staphylococcus aureus
Protocol: MICs were performed on the first and 10th passage.

K. pneumoniae = test: MIC (microbroth dilution); type: cell-based, Klebsiella pneumoniae; conditions: Klebsiella pneumoniae, read-out: MIC
Protocol: (§1) All bacteria were maintained on tryptic soy agar (TSA), except Streptococcus spp., which were maintained on Columbia agar plates containing 5% horse blood. […] Bacteria were grown to stationary phase in liquid culture overnight, with shaking at 200 rpm, before being back diluted to the relevant starting concentration for each assay below. MICs were measured by the microbroth dilution method. […] Absorbance at OD600 was read on a CLARIOstar spectrophotometer (BMG Labtech) and the MIC was defined as the minimum concentration of compound where no visible growth was detected. […] MICs were also performed in the presence of the outer membrane permeator, polymyxin b nonapeptide (PMBN) following the same MIC method but with the following variation. The 2-fold dilution series of compound was prepared as above, then 50 μL of PMBN at a final concentration of 30 μg/mL was added to relevant wells, while 50 μL/well of blank media was added to the remaining wells. Bacteria were then added at 50 μL/well for a starting concentration as above. […] The MICs were read and defined as above. All animal procedures were performed by the contract research organization Pharmacology Discovery Services Taiwan in accordance with the Guide for the Care and Use of Laboratory Animals. The procedures were approved by the Institutional Ethics Committee of Pharmacology Discovery Services Taiwan, Ltd. (approval no. AB127662), in compliance with animal welfare legislation in Taiwan.

E. coli [2] = test: MIC (microbroth dilution); type: cell-based; conditions: Escherichia coli
Protocol: as §1

Pharmacokinetics = conditions: male, ICR (CD-1), mouse, plasma
Protocol: Pharmacokinetic studies were performed in male ICR (CD-1) mice obtained from Charles River, UK. […] Blood samples were collected from the caudal vein into anticoagulant-treated capillaries at predetermined time points up to 8 h, with terminal cardiac puncture at 8 h. Plasma samples were stored at −80 °C until analysis. […] A compound-specific LC-MS/MS method was developed for each test article using matrix-matched calibrators following protein precipitation of samples.

S. aureus [3] = test: Mutation frequency and agar MIC; type: cell-based
Protocol: (§2) Mutation frequencies were performed on solid media at supra-inhibitory concentrations. First, the agar MIC was performed to account for any issues in solubility of compounds in solid media. Agar plates were prepared with 2-fold dilutions of compound.
(§3) For the mutation frequency assay, bacteria from an overnight culture were grown to mid exponential phase in liquid broth, then 100 μL was spread onto an agar plate containing compound at concentrations above the agar MIC. A Miles-Misra was also conducted on an antibiotic-free agar plate to determine the CFU/mL of the starting population. […] The mutation frequency was calculated by dividing the number of colonies on supra inhibitory con-centration plates by the starting population.

A. baumannii = test: Mutation frequency and agar MIC; type: cell-based; conditions: A118
Protocol: as §2, §3

E. coli [4] = test: Mutation frequency and agar MIC; type: cell-based; conditions: NCTC 12241
Protocol: as §2, §3

Acinetobacter baumannii = test: MIC (microbroth dilution); type: cell-based; conditions: read-out: MIC
In short: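 Broth microdilution MICs were run in tryptic soy broth, or for Streptococcus spp. in cation-adjusted Mueller Hinton broth with 2.5% lysed horse blood, using overnight stationary-phase cultures back-diluted. MIC was the lowest concentration with no visible growth, with OD600 also read. Some MICs included PMBN at 30 μg/mL final.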

Cc1cc(C)nc(N[C@@H]2CCN(c3c(F)cc4c(=O)c(C(=O)O)cn5c4c3OC[C@@H]5C)C2)n1 [Compound 50, (S)-10-((R)-3-((4,6-Dimethylpyrimidin-2-yl)amino)pyrrolidin-1-yl)-9-fluoro-3-methyl-7-oxo-2,3-dihydro-7H-[1,4]oxazino[2,3,4-ij]quinoline-6-carboxylic acid] showed an MIC (S. aureus [1]; 1199B WT) of 0.03 µg/mL, an MIC (S. aureus [1]; 1199B adapted to 4 x MIC of Compound 7) of at most 0.015 µg/mL and an MIC (S. aureus [1]; 1199B adapted to 4 x MIC of Compound 46) of 0.125 µg/mL. It also gave an MIC (S. aureus [1]; 1199B adapted to 4 x MIC of Compound 50) of 0.25 µg/mL, an MIC (S. aureus [1]; 1199B adapted to 4 x MIC of Compound 51) of 0.03 µg/mL and an MIC (S. aureus [1]; 1199 WT) of 0.015 µg/mL. The MIC (S. aureus [1]; 1199 adapted to 4 x MIC of Compound 7) was 0.03 µg/mL, the MIC (S. aureus [1]; 1199 adapted to 4 x MIC of Compound 46) was at most 0.015 µg/mL and the MIC (S. aureus [1]; 1199 adapted to 4 x MIC of Compound 50) was 0.125 µg/mL. It also gave an MIC (S. aureus [1]; 1199 adapted to 4 x MIC of Compound 51) of at most 0.015 µg/mL, an MIC (S. aureus [1]; NCTC13616, NCTC 13616 WT) of 0.125 µg/mL and an MIC (S. aureus [1]; NCTC13616, NCTC 13616 adapted to 4 x MIC of Compound 7) of 0.5 µg/mL. The MIC (S. aureus [1]; NCTC13616, NCTC 13616 adapted to 4 x MIC of Compound 46) was 0.25 µg/mL, the MIC (S. aureus [1]; NCTC13616, NCTC 13616 adapted to 4 x MIC of Compound 50) was 0.5 µg/mL and the MIC (S. aureus [1]; NCTC13616, NCTC 13616 adapted to 4 x MIC of Compound 51) was 1 µg/mL. The MIC (K. pneumoniae; M6) was 2 µg/mL (≈ 4.41 µM), the MIC (K. pneumoniae; NCTC13368, NCTC 13368) was 16 µg/mL (≈ 35.3 µM) and the MIC (E. coli [2]; 319238/UR) was 32 µg/mL (≈ 70.6 µM). For the same compound, the MIC (E. coli [2]; LEC006) was 0.5 µg/mL (≈ 1.1 µM), the MIC (E. coli [2]; LEC007) was 0.25 µg/mL (≈ 0.551 µM) and the MIC (E. coli [2]; LEC077) was 8 µg/mL (≈ 17.6 µM). It also gave an MIC (E. coli [2]; LEC081) of 8 µg/mL (≈ 17.6 µM), an MIC (E. coli [2]; NCTC10418, NCTC 10418) of 0.125 µg/mL (≈ 0.276 µM) and an MIC (E. coli [2]; NCTC11954, NCTC 11954) of 0.25 µg/mL (≈ 0.551 µM). For the same compound, the MIC (E. coli [2]; NCTC12241, NCTC 12241) was 0.25 µg/mL (≈ 0.551 µM), the MIC (E. coli [2]; NCTC12923, NCTC 12923) was 1 µg/mL (≈ 2.21 µM) and the AUC(0-inf) (Pharmacokinetics; iv, 5 mg/kg) was 33100 ng·h/mL. It also gave a clearance (Pharmacokinetics; iv, 5 mg/kg) of 2.52 mL/min/kg, a Cmax (Pharmacokinetics; po, 20 mg/kg) of 14500 ng/mL and a Tmax (Pharmacokinetics; po, 20 mg/kg) of 30 min. The bioavailability (Pharmacokinetics; po, 20 mg/kg) was 83%, the Agar MIC (S. aureus [3]; ATCC 9144) was 0.03 µg/mL and the Agar MIC (S. aureus [3]; NCTC 13616) was 0.5 µg/mL. It also gave an Agar MIC (A. baumannii) of 0.25 µg/mL, an Agar MIC (E. coli [4]) of 0.25 µg/mL and an MIC (Acinetobacter baumannii; Acinetobacter baumannii, 86, oxa23) of 8 µg/mL (≈ 17.6 µM). It also gave an MIC (Acinetobacter baumannii; Acinetobacter baumannii, 96, oxa23) of 4 µg/mL (≈ 8.82 µM), an MIC (Acinetobacter baumannii; Acinetobacter baumannii, 113, oxa23) of 4 µg/mL (≈ 8.82 µM) and an MIC (Acinetobacter baumannii; Acinetobacter baumannii, A118) of at most 0.06 µg/mL. For the same compound, the MIC (Acinetobacter baumannii; Acinetobacter baumannii, A318) was 16 µg/mL (≈ 35.3 µM), the MIC (Acinetobacter baumannii; Acinetobacter baumannii, A319) was 4 µg/mL (≈ 8.82 µM) and the MIC (Acinetobacter baumannii; Acinetobacter baumannii, A600 colR) was 4 µg/mL (≈ 8.82 µM). The MIC (Acinetobacter baumannii; Acinetobacter baumannii, A601 colS) was 0.125 µg/mL (≈ 0.276 µM), the MIC (Acinetobacter baumannii; Acinetobacter baumannii, ATCC17978, ATCC 17978) was 0.25 µg/mL (≈ 0.551 µM) and the MIC (Acinetobacter baumannii; Acinetobacter baumannii, BAA1709, BAA-1709) was 0.125 µg/mL (≈ 0.276 µM). It also gave an MIC (Acinetobacter baumannii; Acinetobacter baumannii, BAA1710, BAA-1710 (AYE)) of 8 µg/mL (≈ 17.6 µM), an MIC (Acinetobacter baumannii; Acinetobacter baumannii, NCTC10303, NCTC 10303) of 0.125 µg/mL (≈ 0.276 µM) and an MIC (Acinetobacter baumannii; Acinetobacter baumannii, NCTC13302, NCTC 13302, oxa24) of 4 µg/mL (≈ 8.82 µM). It also gave an MIC (Acinetobacter baumannii; Acinetobacter baumannii, NCTC13424, NCTC 13424, oxa23) of over 64 µg/mL, an MIC (Acinetobacter baumannii; Acinetobacter baumannii, T strain) of 8 µg/mL (≈ 17.6 µM) and an MIC (Acinetobacter baumannii; Acinetobacter baumannii, UKA1, oxa23) of 4 µg/mL (≈ 8.82 µM). The MIC (Acinetobacter baumannii; Acinetobacter baumannii, UKA2, Low resistance) was 8 µg/mL (≈ 17.6 µM), the MIC (Acinetobacter baumannii; Acinetobacter baumannii, UKA9) was 0.125 µg/mL (≈ 0.276 µM) and the MIC (Acinetobacter baumannii; Acinetobacter baumannii, UKA12, oxa23) was 4 µg/mL (≈ 8.82 µM). For the same compound, the MIC (Acinetobacter baumannii; Acinetobacter baumannii, UKA13, oxa23) was 4 µg/mL (≈ 8.82 µM), the MIC (Acinetobacter baumannii; Acinetobacter baumannii, UKA15, oxa23) was 4 µg/mL (≈ 8.82 µM) and the MIC (Acinetobacter baumannii; Acinetobacter baumannii, UKA19) was 0.5 µg/mL (≈ 1.1 µM). It also gave an MIC (Acinetobacter baumannii; Acinetobacter baumannii, W1) of 8 µg/mL (≈ 17.6 µM).
